# ChEMBL document CHEMBL3638462, “Pyridine and pyrimidine derivatives as phosphodiesterase 10 inhibitors” (2014)
# Several values for one entry are separate records, joined by “and”; a condition that tells them apart may be missing. Equal values may be shown once.
# Molecular target: cAMP and cAMP-inhibited cGMP 3',5'-cyclic phosphodiesterase 10A (Homo sapiens, UniProt Q9Y233)
# Experiment: Enzyme Inhibition Assay: To check the inhibition profile, 5 μL of serial diluted compounds were incubated with 5 μL of diluted PDE10 enzyme (BPS Bioscience, San Diego, Calif.) or tissue homogenate in a 384-well polystyrene assay plate (Corning, Corning, N.Y.) for 30 min at room temperature. After incubation, 10 μL of diluted fluorescein labeled cAMP or cGMP substrate were added and incubated for 60 min at room temperature. The reaction was stopped by adding 60 μL of diluted binding reagents and plates were read on an Envision (Perkin Elmer, Waltham, Mass.) for time resolved fluorescence resonance energy transfer. The data were analyzed with GraphPad Prism (La Jolla, Calif.).
# Sequence of cAMP and cAMP-inhibited cGMP 3',5'-cyclic phosphodiesterase 10A (Q9Y233 whole entry): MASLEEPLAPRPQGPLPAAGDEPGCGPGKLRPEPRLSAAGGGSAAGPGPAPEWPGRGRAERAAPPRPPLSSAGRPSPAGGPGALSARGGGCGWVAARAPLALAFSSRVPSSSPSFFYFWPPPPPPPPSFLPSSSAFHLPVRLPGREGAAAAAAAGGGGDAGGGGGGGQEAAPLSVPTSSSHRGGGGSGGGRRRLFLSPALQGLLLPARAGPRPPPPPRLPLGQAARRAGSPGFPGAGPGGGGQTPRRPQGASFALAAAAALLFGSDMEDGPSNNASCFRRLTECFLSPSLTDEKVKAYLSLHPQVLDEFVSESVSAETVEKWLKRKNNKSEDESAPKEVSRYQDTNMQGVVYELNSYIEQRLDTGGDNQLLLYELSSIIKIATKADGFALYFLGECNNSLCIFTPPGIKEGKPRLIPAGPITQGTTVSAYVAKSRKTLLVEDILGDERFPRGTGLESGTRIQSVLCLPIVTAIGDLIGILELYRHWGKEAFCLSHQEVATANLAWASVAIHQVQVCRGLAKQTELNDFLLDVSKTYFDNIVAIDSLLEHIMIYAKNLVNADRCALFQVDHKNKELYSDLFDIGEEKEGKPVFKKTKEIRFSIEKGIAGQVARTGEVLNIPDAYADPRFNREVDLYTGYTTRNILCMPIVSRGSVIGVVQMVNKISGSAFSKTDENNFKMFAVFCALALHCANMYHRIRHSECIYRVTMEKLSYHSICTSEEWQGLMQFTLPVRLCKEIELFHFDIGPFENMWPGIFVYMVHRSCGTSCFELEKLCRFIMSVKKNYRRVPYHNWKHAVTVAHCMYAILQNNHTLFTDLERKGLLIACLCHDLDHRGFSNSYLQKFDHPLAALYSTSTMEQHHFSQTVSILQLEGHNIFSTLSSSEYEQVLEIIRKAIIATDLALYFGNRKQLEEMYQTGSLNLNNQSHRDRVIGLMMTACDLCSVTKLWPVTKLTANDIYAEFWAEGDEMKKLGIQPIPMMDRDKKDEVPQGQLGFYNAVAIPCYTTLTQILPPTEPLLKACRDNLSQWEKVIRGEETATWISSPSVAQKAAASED
row,SMILES,IC50
1,N#Cc1ccc2[nH]c(Nc3ccc(Oc4ncccc4C(F)(F)F)cc3)nc2c1,112 nM
2,CC(=O)N1CCC(c2cccnc2Oc2ccc(C(=O)c3nc4ccccc4[nH]3)cc2)CC1,0.158 nM
3,O=C(c1ccc(Oc2ncccc2-c2ccncc2)cc1)c1nc2ccccc2[nH]1,0.256 nM
4,CC(=O)N1CCC(c2cccnc2Oc2ccc(Nc3nc4ccccc4s3)cc2)CC1,0.175 nM
5,C[C@]1(O)CCC[C@H](c2cccnc2Oc2ccc(Nc3ccccn3)cc2)C1,24.2 nM
6,O=C(c1ccc(Oc2ncccc2Br)cc1)c1nc2ccccc2[nH]1,44.7 nM
7,Brc1cccnc1Oc1ccc(Nc2nc3ccccc3s2)cc1,691 nM
8,Cc1cc(-c2cccnc2Oc2ccc(C(=O)c3nc4ccccc4[nH]3)cc2)ccn1,0.76 nM
9,Cn1cc(-c2cccnc2Oc2ccc(C(=O)c3nc4ccccc4[nH]3)cc2)cn1,6.28 nM
10,COc1cc(-c2cccnc2Oc2ccc(C(=O)c3nc4ccccc4[nH]3)cc2)ccn1,1.61 nM
11,O=C(c1ccc(Oc2ncccc2N2CCOCC2)cc1)c1nc2ccccc2[nH]1,1.59 nM
12,N#Cc1cccc(-c2cccnc2Oc2ccc(Nc3nc4ccccc4s3)cc2)c1,18.3 nM
13,COc1ccc(-c2cccnc2Oc2ccc(Nc3nc4ccccc4s3)cc2)cn1,23.7 nM
14,c1cnc(Oc2ccc(Nc3nc4ccccc4s3)cc2)c(-c2cncnc2)c1,0.303 nM
15,O=C(c1ccc(Oc2ncccc2-c2cccnc2)cc1)c1nc2ccccc2s1,32 nM
16,Cc1cc(-c2cccnc2Oc2ccc(Nc3nc4ccccc4s3)cc2)ccn1,5 nM
17,FC(F)(F)c1cc(-c2cccnc2Oc2ccc(Cc3nc4ccccc4[nH]3)cc2)ccn1,118 nM
18,FC(F)(F)c1cc(-c2cccnc2Oc2ccc(Nc3nc4ccccc4[nH]3)cc2)ccn1,36.7 nM
19,O=C(c1ccc(Oc2ncccc2-c2cnn(C3CC3)c2)cc1)c1nc2ccccc2[nH]1,23 nM
20,O=C(c1ccc(Oc2ncccc2Br)cc1)c1nc2ccccc2n1C1CCCCO1 (configuration not stated),1610 nM
21,O=C(c1ccc(Oc2ncccc2N2CCOCC2)cc1)c1nc2ccccc2s1,98.8 nM
22,c1cnc(Oc2ccc(Nc3nc4ccccc4s3)cc2)c(-c2ccncn2)c1,22.4 nM
23,O=C(c1ccc(Oc2ncccc2C(=O)NCCc2ccccn2)cc1)c1nc2ccccc2[nH]1,1.74 nM
24,c1cnc(Oc2ccc(Nc3nc4ccccc4s3)cc2)c(-c2cccc3ncccc23)c1,6.91 nM
25,COC[C@H](C)NC(=O)c1cccnc1Oc1ccc(C(=O)c2nc3ccccc3[nH]2)cc1,12.8 nM

row,SMILES,IC50
1,c1cnc(Oc2ccc(Nc3nc4ccccc4s3)cc2)c(-c2ccc3c(c2)OCCO3)c1,43.9 nM
2,c1cnc(Oc2ccc(Nc3nc4ccccc4s3)cc2)c(-c2ccc3c(c2)CCO3)c1,42.4 nM
3,O=C(c1ccc(Oc2ncccc2-c2ncnc3nc[nH]c23)cc1)c1nc2ccccc2[nH]1,32.7 nM
4,O=C(c1ccc(Oc2ncccc2-c2ccncn2)cc1)c1nc2ccccc2[nH]1,7.45 nM
5,Cc1ccc(-c2cccnc2Oc2ccc(C(=O)c3nc4ccccc4[nH]3)cc2)cn1,0.177 nM
6,O=C(c1ccc(Oc2ncccc2Br)cc1)c1nc2ccc(F)cc2[nH]1,74.6 nM
7,O=C(c1ccc(Oc2ncccc2Br)cc1)c1nc2ccccc2s1,3940 nM
8,C1=C(c2cccnc2Oc2ccc(Nc3nc4ccccc4s3)cc2)CCCC1,72 nM
9,C[C@@H](Cc1ccccn1)NC(=O)c1cccnc1Oc1ccc(C(=O)c2nc3ccccc3[nH]2)cc1,0.971 nM and 0.541 nM
10,O=C(c1ccc(Oc2ncccc2N2CCCCC2)cc1)c1nc2ccccc2[nH]1,13.3 nM
11,O=C(c1ccc(Oc2ncccc2N2CCCC2)cc1)c1nc2ccccc2[nH]1,14 nM
12,O=C(c1ccc(Oc2ncccc2C(=O)N[C@@H](CO)Cc2ccccc2)cc1)c1nc2ccccc2[nH]1,12.8 nM
13,O=C(c1ccc(Oc2ncccc2C(=O)N[C@H](CO)Cc2ccccc2)cc1)c1nc2ccccc2[nH]1,0.839 nM
14,CC(C)(CNC(=O)c1cccnc1Oc1ccc(C(=O)c2nc3ccccc3[nH]2)cc1)c1ccccn1,1.48 nM
15,O=C(c1ccc(Oc2ncccc2-c2ccnc3ccccc23)cc1)c1nc2ccccc2[nH]1,0.67 nM
16,O=C(c1ccc(Oc2ncccc2C(=O)NC2(Cc3ccccc3)CC2)cc1)c1nc2ccccc2[nH]1,0.168 nM
17,c1cnc(Oc2ccc(Nc3nc4ccccc4s3)cc2)c(-c2ccnc3ccccc23)c1,7.22 nM
18,CC(C)(C)OC(=O)N1CC=C(c2cccnc2Oc2ccc(Nc3nc4ccccc4s3)cc2)CC1,44.4 nM
19,CN(c1ccc(Oc2ncccc2-c2cccnc2)cc1)c1nc2ccccc2s1,15.2 nM
20,O=C(c1ccc(Oc2ncccc2-c2cccnc2)cc1)c1nc2ncccc2[nH]1,4.81 nM
21,O=C(c1ccc(Oc2ncccc2C(=O)N[C@H](CO)Cc2ccc(O)cc2)cc1)c1nc2ccccc2[nH]1,3.65 nM
22,O=C(c1ccc(Oc2ncccc2C(=O)NCCc2ccccc2)cc1)c1nc2ccccc2[nH]1,2.72 nM
23,C1=C(c2cccnc2Oc2ccc(Nc3nc4ccccc4s3)cc2)CCOC1,2.21 nM
24,Cc1ccc(-c2cccnc2Oc2ccc(Nc3nc4ccccc4s3)cc2)cn1,0.219 nM
25,COC1CCN(c2cccnc2Oc2ccc(Nc3nc4ccccc4s3)cc2)CC1,3.16 nM

row,SMILES,IC50
1,Cc1ccc(CCNC(=O)c2cccnc2Oc2ccc(C(=O)c3nc4ccccc4[nH]3)cc2)cc1,3.11 nM
2,COC[C@H](Cc1ccccc1)NC(=O)c1cccnc1Oc1ccc(C(=O)c2nc3ccccc3[nH]2)cc1,1.64 nM
3,c1cncc(-c2cccnc2Oc2ccc(Nc3nc4ccccc4[nH]3)cc2)c1,0.179 nM
4,O=C(c1ccc(Oc2ncccc2C(=O)NC2Cc3ccccc3C2)cc1)c1nc2ccccc2[nH]1,56.7 nM
5,CC(=O)N1CC=C(c2cccnc2Oc2ccc(Nc3nc4ccccc4s3)cc2)CC1,0.363 nM
6,CC(=O)N1CC=C(c2cccnc2Oc2ccc(C(=O)c3nc4ccccc4[nH]3)cc2)CC1,0.194 nM
7,C[C@@H](CNC(=O)c1cccnc1Oc1ccc(C(=O)c2nc3ccccc3[nH]2)cc1)c1ccccc1,2.69 nM
8,O=C1C=C(c2cccnc2Oc2ccc(C(=O)c3nc4ccccc4[nH]3)cc2)CC1,1.01 nM
9,C[C@H](CNC(=O)c1cccnc1Oc1ccc(C(=O)c2nc3ccccc3[nH]2)cc1)c1ccccc1,8.81 nM
10,CC(=O)N1CCC(c2cccnc2Oc2ccc([C@H](O)c3nc4ccccc4[nH]3)cc2)CC1,4.2 nM
11,OC(c1ccc(Oc2ncccc2C2CCOCC2)cc1)c1nc2ccccc2[nH]1 (configuration not stated),45.7 nM
12,O=C1C=C(c2cccnc2Oc2ccc(Nc3nc4ccccc4s3)cc2)CC1,2.84 nM
13,c1cnc(Oc2ccc(Nc3nc4ccccc4s3)cc2)c([C@H]2CCCO2)c1,54.2 nM
14,O=C(c1ccc(Oc2ncccc2[C@@H]2CCCO2)cc1)c1nc2ccccc2[nH]1,4.97 nM and 13.3 nM
15,O=C(c1ccc(Oc2ncccc2[C@@H]2CCOC2)cc1)c1nc2ccccc2[nH]1,0.92 nM
16,C1=CO[C@H](c2cccnc2Oc2ccc(Nc3nc4ccccc4s3)cc2)CC1,22.3 nM
17,O[C@@H]1CCC[C@H](c2cccnc2Oc2ccc(Nc3nc4ccccc4s3)cc2)C1,2.21 nM
18,C[C@]1(O)CCC[C@H](c2cccnc2Oc2ccc(Nc3nc4ccccc4s3)cc2)C1,6.87 nM
19,O=C(c1ccc(Oc2ncccc2C2(F)CCOCC2)cc1)c1nc2ccccc2[nH]1,0.311 nM
20,C[C@]1(O)CCC[C@H](c2cccnc2Oc2ccc(C(=O)c3nc4ccccc4[nH]3)cc2)C1,1.14 nM
21,CN1C[C@@H](c2cccnc2Oc2ccc(Nc3nc4ccccc4s3)cc2)CC1=O,0.195 nM
22,FC(F)(c1ccc(Oc2ncccc2C2CCOCC2)cc1)c1nc2ccccc2[nH]1,11.6 nM
23,Cn1c(C(=O)c2ccc(Oc3ncccc3C3CCOCC3)cc2)nc2ccccc21,0.509 nM
24,O=C(c1ccc(Oc2ncccc2[C@@H]2CC[C@H](O)C2)cc1)c1nc2ccccc2[nH]1,0.675 nM
25,C[C@@]1(O)CCC[C@@H](c2cccnc2Oc2ccc(Nc3nc4ccccc4s3)cc2)C1,3.66 nM

row,SMILES,IC50
1,C[C@H](Cc1ccc(F)cc1)NC(=O)c1cccnc1Oc1ccc(C(=O)c2nc3ccccc3[nH]2)cc1,0.135 nM
2,COc1cncc(-c2cccnc2Oc2ccc(C(=O)c3nc4ccccc4[nH]3)cc2)c1,0.622 nM
3,COc1ccc(-c2cccnc2Oc2ccc(C(=O)c3nc4ccccc4[nH]3)cc2)cn1,1.27 nM
4,C[C@H](Cc1ccccn1)NC(=O)c1cccnc1Oc1ccc(C(=O)c2nc3ccccc3[nH]2)cc1,6.83 nM
5,c1cnc(Oc2ccc(Nc3nc4ccccc4s3)cc2)c([C@H]2CCOC2)c1,0.865 nM
6,O=C(c1ccc(Oc2ncccc2[C@H]2CCC[C@@H](O)C2)cc1)c1nc2ccccc2[nH]1,0.99 nM
7,C[C@]1(O)CCCC(c2cccnc2Oc2ccc(C(=O)c3nc4ccccc4[nH]3)cc2)C1 (some centres not stated),1.22 nM
8,C[C@]1(O)CC[C@@H](c2cccnc2Oc2ccc(Nc3nc4ccccc4s3)cc2)CC1,12.6 nM
9,C[C@]1(O)CC[C@@H](c2cccnc2Oc2ccc(C(=O)c3nc4ccccc4[nH]3)cc2)CC1,1.63 nM
10,C[C@]1(O)CC[C@H](c2cccnc2Oc2ccc(C(=O)c3nc4ccccc4[nH]3)cc2)CC1,1.42 nM
11,C[C@]1(O)CC[C@H](c2cccnc2Oc2ccc(Nc3nc4ccccc4s3)cc2)CC1,4.51 nM
12,c1cnc(Oc2ccc(Nc3nc4ccccc4s3)cc2)c([C@@H]2CCCOC2)c1,2.49 nM
13,Cn1c(C(=O)c2ccc(Oc3ncccc3C3(F)CCOCC3)cc2)nc2ccccc21,0.749 nM
14,CC(=O)N1CCC[C@@H](c2cccnc2Oc2ccc(Nc3nc4ccccc4s3)cc2)C1,0.268 nM
15,O[C@@H]1CC[C@H](c2cccnc2Oc2ccc(Nc3nc4ccccc4s3)cc2)C1,2.64 nM
16,COc1ncccc1-c1cccnc1Oc1ccc(Nc2nc3ccccc3s2)cc1,2.54 nM
17,COc1cccc(-c2cccnc2Oc2ccc(Nc3nc4ccccc4s3)cc2)n1,164 nM
18,O[C@H]1CCC[C@@H](c2cccnc2Oc2ccc(Nc3nc4ccccc4s3)cc2)C1,3.75 nM
19,O[C@H]1CC[C@H](c2cccnc2Oc2ccc(Nc3nc4ccccc4s3)cc2)C1,1.21 nM
20,O[C@H]1CC[C@@H](c2cccnc2Oc2ccc(Nc3nc4ccccc4s3)cc2)C1,2.54 nM
21,O[C@H]1CC[C@H](c2cccnc2Oc2ccc(Nc3nc4ccccc4s3)cc2)CC1,6.38 nM
22,O[C@H]1CC[C@@H](c2cccnc2Oc2ccc(Nc3nc4ccccc4s3)cc2)CC1,1.63 nM
